Measurements reported in US9532988B2, “Pharmaceutical composition comprising a TRPA1 antagonist and an analgesic agent” (GLENMARK PHARMACEUTICALS S.A., priority 2013, dated 2017).

Tests used:
[1] = test system: MIA-osteoarthritis induced mechanical punctate allodynia in male SD rats; experiment: MIA-induced mechanical punctate allodynia (dynamic von Frey); assay type: in vivo, rat (Sprague-Dawley); settings: Compound III 0.132 mg/kg p.o. alone; 0.5-4 h post-dose; Example 19, Table 22, FIG. 25
Method: MIA was dissolved in 0.9% sterile saline and administered using a 26½ gauge needle. Contralateral knees were injected intra-articularly with 50 μl of 0.9% sterile saline. On the day of the experiment (20 h after MIA injection), rats were evaluated for pre-dose mechanical punctate allodynia to assess the effect of MIA. After regrouping the rats after randomization, the pre- & post-dose mechanical allodynia was assessed for both hind paws. […] The % reversal of punctate allodynia was calculated as per standard procedure. Animals were weighed and grouped as described in Table 22.

[2] = test system: FCA-induced thermal hyperalgesia in male SD rats; experiment: FCA-induced thermal hyperalgesia (Hargreaves apparatus); assay type: in vivo, rat (Sprague-Dawley); settings: Compound III 0.039 mg/kg p.o. alone; 0.5-4 h post-dose; Example 16, Table 19, FIG. 22
Method: The % reversal of mechanical/thermal hyperalgesia was calculated.

[3] = test system: Streptozotocin (STZ)-induced diabetic peripheral neuropathic hyperalgesia in male SD rats; experiment: Streptozotocin-induced diabetic peripheral neuropathic hyperalgesia; assay type: in vivo, rat (Sprague-Dawley); settings: Compound III 0.04 mg/kg p.o. alone; 0.5-4 h post-dose; Example 18, Table 21, FIG. 24
Method: (§1) Streptozotocin (STZ)-induced neuropathic hyperalgesia in rats is a model to screen potential therapeutics for diabetic painful neuropathy in human patients. Streptozotocin was dissolved in freshly prepared cold citrate buffer (0.1 M, pH—4.4). Diabetes was induced in overnight fasted male SD rats (weighing 250-300 g) by a single intraperitoneal injection of Streptozotocin (Sigma, 55 mg/kg, i.p). […] On the day of the experiment (13th day after STZ injection) rats were assessed for mechanical hyperalgesia using Randall-Sellito paw pressure analgesymeter. Animals were weighed and grouped as described in Table 9.
Rats were orally dosed with vehicle, duloxetine hydrochloride, Compound I potassium salt and combination (Duloxetine+Compound I).
as §1, with “pH —4.4).” for “pH—4.4).”, “Sprague Dawley” for “SD”, “rats” for “rats (weighing 250-300 g)”, “analgesymeter.” for “analgesymeter. Animals were weighed and grouped as described in Table 9.”
Rats were orally dosed with vehicle, different doses of duloxetine hydrochloride, Compound II disodium salt and combinations (duloxetine+Compound II—simultaneously). The post-dose paw withdrawal thresholds were measured at 1, 2 & 4 h after oral administration. […] Animals were weighed and grouped as described in Table 16.
Rats were orally dosed with vehicle, different doses of duloxetine hydrochloride, Compound III disodium salt and combinations (duloxetine+Compound III—simultaneously). […] Animals were weighed and grouped as described in Table 21.

[4] = test system: Freund's Complete Adjuvant (FCA)-induced inflammatory mechanical hyperalgesia in male SD rats; experiment: FCA-induced inflammatory mechanical hyperalgesia (Randall-Sellitto paw pressure);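 further: left hind paw withdrawal threshold (g) to rising pressure on an analgesymeter, FCA injected intraplantar 24 h earlier, thresholds taken before and 0.5, 1, 2 and 4 h after oral dosing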; settings: Compound III 0.039 mg/kg p.o. alone
Method: Materials: FCA containing 1 mg/ml of heat killed and dried Mycobacterium tuberculosis (H37RA strain) emulsified in mineral oil and mannide mono-oleate; Male SD rats weighing 170-220 g; Paw Pressure Analgesymeter (37215, Ugo Basile, Comerio, Italy); Compound I potassium; and Diclofenac sodium
Naïve withdrawal thresholds of the left hind paw to an increasing pressure (g) stimulus were measured in rats using the analgesymeter. FCA was injected (30 μl) into the plantar region of left paw of rats to induce the inflammatory hyperalgesia. Mechanical hyperalgesia (24 h after FCA injection) was assessed by measuring hind paw withdrawal thresholds.
The post-dose paw withdrawal thresholds were measured at 0.5, 1, 2 & 4 h after oral administration. The percentage (%) reversal of mechanical hyperalgesia was calculated as per standard procedure.
Naïve withdrawal thresholds of the left hind paw to an increasing pressure (g) stimulus were measured in rats using the analgesymeter. Freund's Complete Adjuvant (FCA) was injected (30 μl) into the plantar region of left paw of rats to induce the inflammatory hyperalgesia. Mechanical hyperalgesia (24 h after FCA injection) was assessed both pre- & post-dosing of drugs by measuring hind paw withdrawal thresholds. […] The post-dose paw withdrawal thresholds were measured at 0.5, 1, 2 & 4 h after oral administration. The % reversal of mechanical hyperalgesia was calculated.
Naïve withdrawal thresholds of the left hind paw to an increasing pressure (g) stimulus were measured in rats using the analgesymeter.

## Cn1c(=O)c2c(CC(=O)N=c3scc(-c4ccc(C(F)(F)F)c(F)c4F)n3COP(=O)(O)O)nsc2n(C)c1=O [Compound III, [4-[2,3-difluoro-4-(trifluoromethyl)phenyl]-2-{[(5,7-dimethyl-4,6-dioxo-4,5,6,7-tetrahydro[1,2]thiazolo[5,4-d]pyrimidin-3-yl)acetyl]imino}-1,3-thiazol-3(2H)-yl]methyl dihydrogen phosphate]
[1]
  maximal % reversal of mechanical punctate allodynia: 19%
[2]
  maximal % reversal of thermal hyperalgesia: 22%
[3]
  maximal % reversal of hyperalgesia: 19%
[4]; Example 16, Table 19, FIG. 21
  maximal % reversal of mechanical hyperalgesia: 17%
[4]; Example 17, Table 20, FIG. 23
  maximal % reversal of mechanical hyperalgesia: 17%
